Experimental data published in patent publication US20160340656A1, “PEPTIDES DERIVED FROM GSE 24.2 FOR TREATING DISEASES CAUSED BY OXIDATIVE STRESS AND DAMAGE TO DNA” (CONSEJO SUPERIOR DE INVESTIGACIONES CIENTÍFICAS (CSIC), priority 2013, published 2016).

Columns and labels:
Assay type in all cases: cell-based, human
AT719-P cells = assay: Oxidative stress (ROS by DHE, flow cytometry) in AT719-P cells expressing GSE24.2 or GSE4; conditions: three weeks after infection
Description: FIG. 11. Determination of oxidative stress levels in ataxia telangiectasia cells after expressing the peptides GSE24.2 and GSE4. AT719-P cells were infected with a lentiviral vector expressing GSE24.2, GSE4 or a GFP empty vector and three weeks later loaded with the DHE reagent that detects levels of reactive oxygen species (ROS). AT736C cells were used as a control. The relative fluorescence of the four cell lines and the proportion of cells with maximum intensity were determined by flow cytometry at wavelengths of 518 nm absorption and 605 nm emission. The data are shown as relative percentage of cells that emit at this wavelength.
(§1) As the peptide denominated GSE4 was smaller than the peptides with ability to repair telomerase activity, we studied if it had the same activity as peptide GSE24.2 for attenuating oxidative stress, expression of proinflammatory cytokines and repairing the senescence in ataxia telangiectasia cells. […] Finally, given that the increase in expression of the interleukins IL6 and IL8 are associated with a secretory phenotype linked to senescence in ataxia telangiectasia, we evaluated the ability of both peptides GSE24.2 and GSE4 to reduce senescence by evaluating senescence-associated β-galactosidase activity (SA-beta-Gal) (FIG. 13).

IL8 = assay: Expression of proinflammatory cytokine IL8 in AT719-P cells; conditions: relative to β-actin
Description: FIG. 12. Levels of expression of proinflammatory cytokines in ataxia telangiectasia cells after expressing peptides GSE24.2 and GSE4. AT719-P AT cells were infected with a lentiviral vector expressing GSE24.2, GSE4 or a GFP empty vector and three weeks later the RNA was extracted and after obtaining the corresponding cDNA, the levels of expression of the proinflammatory cytokines IL6 and IL8 were determined. AT736C cells were used as a control. The levels of expression of the gene β-actin were measured as control of expression. The results are expressed as the relative increase in the number of times of expression of each of the genes compared to β-actin, considering the levels of expression of AT736C cells as 1.
as §1

AT2078 AT cells = assay: Senescence-associated β-galactosidase activity in AT cells; conditions: 3 days or eight days after infection
From the text: FIG. 13. Determination of senescence of AT cells after expressing peptides GSE24.2 and GSE4: AT2078 AT cells were infected with a lentiviral vector expressing GSE24.2, GSE4 or a GFP empty vector and 3 days or eight days later they were fixed to determine the expression of the enzyme β-galactosidase acid associated with senescence (senescence-associated β-galactosidase). Control C-1787 cells were used as the negative control. The percentage of cells expressing β-galactosidase from the total cells per field was determined. 200 cells per cell type were evaluated and the results grouped into cells showing no activity (βgal-, in division) and senescent cells (β-gal+).
as §1

AT cells (AT3784) = assay: Damage to DNA in AT cells: pCHK2 Thr68 foci after lentiviral expression of GSE24.2
Description: FIG. 2. Determination of damage to DNA in AT cells: AT3784 AT cells were infected with a lentiviral vector expressing GSE24.2 or a GFP empty vector and were fixed 24 hours later to be processed and hybridised with an antibody against the kinase pCHK2[…]. Control C-1787 cells were used as the negative control. Next they were hybridised with a fluorescein-labelled antibody and were stained with DAPI to locate the nuclei. […] Therefore expression of GSE24.2 is able to correct damage to DNA in 28% of cells, confirming the data obtained with phosphorylated histone H2AX.

AT719 cells = assay: Viability (MTS) in response to bleomycin in AT cells; conditions: increasing concentrations of bleomycin, 72 hours, versus AT736C control
Description: FIG. 5. Determination of the viability in response to bleomycin in AT cells: AT719-P AT cells were infected with a lentiviral vector expressing GSE24.2 or a GFP empty vector and three weeks later they were treated with different doses of bleomycin. AT736C cells were used as a control. The cells were fixed after 72 hours of treatment and viability determined with the MTS reagent. The values represent the result of the test performed in triplicate and express the viability with respect to untreated cells.
Mutations in gene ATM sensitise cells of AT patients to treatment with ionizing radiation or radiomimetic drugs such as bleomycin. In order to verify if the protective effect induced by GSE24.2 in cells of AT patients also extends to radiomimetic agents, AT719 patient cells expressing pCMV-GFP-GSE24.2 or an empty vector expressing only GFP (GFP) were treated with increasing concentrations of bleomycin for 72 hours. After this time, cell viability was evaluated using MTS reagent. AT736C cells were used as a control.

| Sequence | reduction of levels of free radicals (AT719-P cells) [%] | reduction of levels of expression of IL8 (IL8) | senescence: percentage of cells positive for beta-galactosidase activity (AT2078 AT cells) | cells in which damage to DNA is corrected (AT cells (AT3784)) [%] | fewer AT cells showing basal damage (AT cells (AT3784); after expressing GSE24.2) [%] | reduction of high levels of damage to DNA (AT cells (AT3784); after expressing GSE24.2) [%] | viability after bleomycin (AT719 cells) |
| --- | --- | --- | --- | --- | --- | --- | --- |
| GFINLDKPSNP [GSE4] | 50 | 90% | reduced the percentage of positive cells for beta-galactosidase activity progressively over time |  |  |  |  |
| GFINLDKPSNPSSHEVVAWIRRILRVEKTGHSGTLDPKVTGCLIVCIERATRLVK (GSE24.2; listed as Homo sapiens) [55-amino-acid peptide corresponding to the protein dyskerin; known from WO2007/090911] | ~50 | in the same range | reduced the percentage of positive cells for beta-galactosidase activity progressively over time | 28 | 25 | 13 | able to increase viability of AT719 cells to levels similar to control cells |
